Test results: paper PMC8484140 (Targeted Oncology, 2021)

Columns and labels:
Safety evaluation = type: in vivo, human
[1] = system: HR+/HER2− advanced breast cancer; assay: Efficacy by RECIST 1.1, Stage I/II patients; type: in vivo, human; settings: for Clinical response: CR (number of patients) / Clinical response: PD (number of patients) / Clinical response: PR (number of patients) / Clinical response: SD (number of patients): with exemestane in Stage II
[2] = type: in vivo, human
[3] = system: estrogen receptor-positive advanced breast cancer; settings: entinostat plus exemestane; prolonged from 19.8; cited from earlier work
[4] = Stage II, 3 mg/week + exemestane 25 mg/day, n=2
[5] = Stage II, 5 mg/week + exemestane 25 mg/day, n=14
[6] = additional 21 patients, entinostat 5 mg/week + exemestane 25 mg/day

Nc1ccccc1NC(=O)c1ccc(CNC(=O)OCc2cccnc2)cc1 [Entinostat]
Tolerability of entinostat in combination with exemestane (Safety evaluation; Chinese patients): well tolerated
AKP elevation, entinostat-related AE of all grades (Safety evaluation; [4]): 0 No. (%)
ALT elevation, entinostat-related AE of all grades (Safety evaluation; [4]): 0 No. (%)
AST elevation, entinostat-related AE of all grades (Safety evaluation; [4]): 0 No. (%)
Abdominal pain, entinostat-related AE of all grades (Safety evaluation; [4]): 0 No. (%)
Anemia, entinostat-related AE of all grades (Safety evaluation; [4]): 0 No. (%)
Back pain, entinostat-related AE of all grades (Safety evaluation; [4]): 0 No. (%)
Chest pain, entinostat-related AE of all grades (Safety evaluation; [4]): 0 No. (%)
Creatine increase, entinostat-related AE of all grades (Safety evaluation; [4]): 0 No. (%)
Creatinine phosphokinase increase, entinostat-related AE of all grades (Safety evaluation; [4]): 0 No. (%)
Debilitation, entinostat-related AE of all grades (Safety evaluation; [4]): 0 No. (%)
Diarrhea, entinostat-related AE of all grades (Safety evaluation; [4]): 0 No. (%)
Fatigue, entinostat-related AE of all grades (Safety evaluation; [4]): 0 No. (%)
Flatulence, entinostat-related AE of all grades (Safety evaluation; [4]): 0 No. (%)
Headache, entinostat-related AE of all grades (Safety evaluation; [4]): 0 No. (%)
Hypoalbuminemia, entinostat-related AE of all grades (Safety evaluation; [4]): 0 No. (%)
Hypocalcemia, entinostat-related AE of all grades (Safety evaluation; [4]): 0 No. (%)
Hypokalemia, entinostat-related AE of all grades (Safety evaluation; [4]): 0 No. (%)
Hypoproteinemia, entinostat-related AE of all grades (Safety evaluation; [4]): 0 No. (%)
LDH increase, entinostat-related AE of all grades (Safety evaluation; [4]): 0 No. (%)
Leukopenia, entinostat-related AE of all grades (Safety evaluation; [4]): 0 No. (%)
Limb pain, entinostat-related AE of all grades (Safety evaluation; [4]): 0 No. (%)
Nausea, entinostat-related AE of all grades (Safety evaluation; [4]): 0 No. (%)
Neutropenia, entinostat-related AE of all grades (Safety evaluation; [4]): 2 (100) No. (%)
Palpitation, entinostat-related AE of all grades (Safety evaluation; [4]): 0 No. (%)
Serum Ca^2+ decrease, entinostat-related AE of all grades (Safety evaluation; [4]): 0 No. (%)
Serum Na+ decrease, entinostat-related AE of all grades (Safety evaluation; [4]): 0 No. (%)
Serum albumin decrease, entinostat-related AE of all grades (Safety evaluation; [4]): 0 No. (%)
Serum phosphate decrease, entinostat-related AE of all grades (Safety evaluation; [4]): 0 No. (%)
Serum urea increase, entinostat-related AE of all grades (Safety evaluation; [4]): 0 No. (%)
Thrombocytopenia, entinostat-related AE of all grades (Safety evaluation; [4]): 0 No. (%)
Γ-GT elevation, entinostat-related AE of all grades (Safety evaluation; [4]): 0 No. (%)
α-HBDH elevation, entinostat-related AE of all grades (Safety evaluation; [4]): 0 No. (%)
Grade 3 AE (Safety evaluation; Stage II, 3 mg/week group + exemestane): no grade 3 AE occurred
CTCAE grade 3 arrhythmia requiring medical care (Safety evaluation; Stage II, 5 mg entinostat group, 1/14): 7.1%
AKP elevation, entinostat-related AE of all grades (Safety evaluation; [5]): 4 (28.6) No. (%)
ALT elevation, entinostat-related AE of all grades (Safety evaluation; [5]): 0 No. (%)
AST elevation, entinostat-related AE of all grades (Safety evaluation; [5]): 2 (14.3) No. (%)
Abdominal pain, entinostat-related AE of all grades (Safety evaluation; [5]): 0 No. (%)
Anemia, entinostat-related AE of all grades (Safety evaluation; [5]): 5 (35.7) No. (%)
Back pain, entinostat-related AE of all grades (Safety evaluation; [5]): 0 No. (%)
Chest pain, entinostat-related AE of all grades (Safety evaluation; [5]): 0 No. (%)
Creatine increase, entinostat-related AE of all grades (Safety evaluation; [5]): 4 (28.6) No. (%)
Creatinine phosphokinase increase, entinostat-related AE of all grades (Safety evaluation; [5]): 6 (42.9) No. (%)
Debilitation, entinostat-related AE of all grades (Safety evaluation; [5]): 0 No. (%)
Diarrhea, entinostat-related AE of all grades (Safety evaluation; [5]): 3 (21.4) No. (%)
Fatigue, entinostat-related AE of all grades (Safety evaluation; [5]): 0 No. (%)
Flatulence, entinostat-related AE of all grades (Safety evaluation; [5]): 0 No. (%)
Headache, entinostat-related AE of all grades (Safety evaluation; [5]): 0 No. (%)
Hypoalbuminemia, entinostat-related AE of all grades (Safety evaluation; [5]): 3 (21.4) No. (%)
Hypocalcemia, entinostat-related AE of all grades (Safety evaluation; [5]): 2 (14.3) No. (%)
Hypokalemia, entinostat-related AE of all grades (Safety evaluation; [5]): 2 (14.3) No. (%)
Hypoproteinemia, entinostat-related AE of all grades (Safety evaluation; [5]): 3 (21.4) No. (%)
LDH increase, entinostat-related AE of all grades (Safety evaluation; [5]): 2 (14.3) No. (%)
Leukopenia, entinostat-related AE of all grades (Safety evaluation; [5]): 10 (71.4) No. (%)
Limb pain, entinostat-related AE of all grades (Safety evaluation; [5]): 2 (14.3) No. (%)
Nausea, entinostat-related AE of all grades (Safety evaluation; [5]): 0 No. (%)
Neutropenia, entinostat-related AE of all grades (Safety evaluation; [5]): 10 (71.4) No. (%)
Palpitation, entinostat-related AE of all grades (Safety evaluation; [5]): 0 No. (%)
Serum Ca^2+ decrease, entinostat-related AE of all grades (Safety evaluation; [5]): 2 (14.3) No. (%)
Serum Na+ decrease, entinostat-related AE of all grades (Safety evaluation; [5]): 2 (14.3) No. (%)
Serum albumin decrease, entinostat-related AE of all grades (Safety evaluation; [5]): 2 (14.3) No. (%)
Serum phosphate decrease, entinostat-related AE of all grades (Safety evaluation; [5]): 7 (50) No. (%)
Serum urea increase, entinostat-related AE of all grades (Safety evaluation; [5]): 2 (14.3) No. (%)
Thrombocytopenia, entinostat-related AE of all grades (Safety evaluation; [5]): 6 (42.9) No. (%)
Γ-GT elevation, entinostat-related AE of all grades (Safety evaluation; [5]): 3 (21.4) No. (%)
α-HBDH elevation, entinostat-related AE of all grades (Safety evaluation; [5]): 2 (14.3) No. (%)
Number of CTCAE grade ≥ 3 AEs (Safety evaluation; Stage II, 5 mg/week group + exemestane): 38
Clinical response: CR (number of patients) ([1]; 3 mg (n = 2)): 0
Clinical response: PD (number of patients) ([1]; 3 mg (n = 2)): 1
Clinical response: PR (number of patients) ([1]; 3 mg (n = 2)): 0
Clinical response: SD (number of patients) ([1]; 3 mg (n = 2)): 1
Clinical response: CR (number of patients) ([1]; 5 mg (n = 9)): 0
Clinical response: PD (number of patients) ([1]; 5 mg (n = 9)): 6
Clinical response: PR (number of patients) ([1]; 5 mg (n = 9)): 2
Clinical response: SD (number of patients) ([1]; 5 mg (n = 9)): 1
PFS ([1]; 5 mg group, from first dose of entinostat, 95% CI: 78–201): 85.5 days
Clinical response: CR (number of patients) ([1]; 7 mg→5 mg (n = 3)): 0
Clinical response: PD (number of patients) ([1]; 7 mg→5 mg (n = 3)): 2
Clinical response: PR (number of patients) ([1]; 7 mg→5 mg (n = 3)): 0
Clinical response: SD (number of patients) ([1]; 7 mg→5 mg (n = 3)): 1
Overall response rate (ORR, CR+PR) ([1]; 14 evaluated patients, 2/14): 14.3%
Patients achieving CR ([1]; 14 evaluated patients, all cohorts): none
Patients with stable disease ([1]; 14 evaluated patients, all three treatment groups): Three
Patients with PD ([1]; 14 evaluated patients, three groups): Nine
Patients with stable disease (> 12 weeks) ([1]; extended treatment stage, entinostat 3 or 5 mg/week + exemestane 25 mg/day): three
Grade 3/4 anemia [2, 6]: 9.5%
Grade 3/4 fatigue [2, 6]: 9.5%
Grade 3/4 neutropenia [2, 6]: 38%
Grade 3/4 thrombocytopenia [2, 6]: 9.5%
Occurrence rate of thrombocytopenia ([2]; entinostat in combination with exemestane, as quoted in Discussion): 10%
Overall survival (OS) [3]: 28.1 months
